Experimental data published in patent US7009036B2, “Peptide inhibiting platelet derived growth factor (PDGF-BB) and fibroblast growth factor (bFGF) activity” (Provincia Italiana Della Congregazione Dei Figli …, priority 2001, dated 2006).
Ends that are not written are not given here.

What was measured:
[1] = tested on: primary bovine aortic endothelial cells (BAEC); experiment: Proliferation assay, BAEC; format: cell-based; conditions: 0.1% BSA alone, no growth factor; any time
Experimental: (§1) This test was carried out on Primary rat aorta smooth muscle cells (RASMC) obtained from six-month old male Wistar rats following a well known technique (Sterpetti, A. V. et al., 1992, J. Vasc. Surg., 6, 16–20); primary bovine aortic endothelial cells (BAEC) were obtained according to previously described protocols (D'Arcangelo, D. et al., 2000, Circ.Res., 86, 312–318).
(§2) Proliferation assay was carried out on primary rat aorta SMC and on primary bovine aortic endothelial cells (BAEC). Cells were plated in six-well plates (1×10^5 cells/plate) and grown for 24 hours in Dulbecco Modified eagle's medium (DMEM) supplemented with 10% FBS, at 37° C. in 5% CO2. Then, the medium was replaced with DMEM medium containing 0.1% BSA for 24 hours. Subsequently, the medium was replaced with fresh medium containing either 0.1% BSA alone or 0.1% BSA with growth factors at 10 ng/ml final concentration or fetal calf serum (FCS) al 10%, in the absence or in the presence of PEP1 or control peptide. Each assay was carried out for mounting period of time up to a maximum time of three days and the cell were harvested and counted with hemacytometer.

[2] = tested on: primary rat aorta smooth muscle cells (RASMC); experiment: Proliferation assay, RASMC; format: cell-based; conditions: 0.1% BSA alone, no growth factor; any time
Experimental: as §1, §2

“DPHIKLQLQAE [PEP1, Asp-Pro-His-Ile-Lys-Leu-Gln-Leu-Gln-Ala-Glu]” was tested, and the “effect on spontaneous proliferation (toxicity per se), BAEC” value [1] was “not significantly affected” and the “effect on spontaneous proliferation (toxicity per se), RASMC” value [2] was “not significantly affected”.
